Source: patent US7192728B2, “Screening assays for agents that alter inhibitor of apoptosis (IAP) protein regulation of caspase activity” (The Burnham Institute, priority 1997, dated 2007)

How the values were obtained:
[1] = system: HeLa cell nuclei in cytosolic extract; experiment: Apoptosis of isolated nuclei in cell-free system (cytochrome c/dATP); details: 0.4 μM protein with 10 μM cytochrome c and 1 mM dATP; 37° C., 60 min; baseline about 15%, cytochrome c/dATP alone >95%
Procedure: Cells were washed with ice cold buffer A (20 mM Hepes (pH 7.5), 10 mM KCl, 1.5 mM MgCl2, 1 mM EDTA, 1 mM DTT and 0.1 mM PMSF) and suspended in 1 vol buffer A, then incubated on ice for 20 min. 293 cells were disrupted by passage 15× through a 26 gauge needle and Jurkat T cells were disrupted by dounce homogenization in 2 ml using 15 strokes with a pestle B. Cell extracts (10–15 mg total protein/ml) were clarified by centrifugation at 16,000×g for 30 min, then the NaCl concentration was increased by 50 mM. Cytosolic fractions were used immediately or stored frozen at −80° C.
Isolated nuclei were prepared from HeLa cells (Martin et al., supra, 1995). Approximately 5×10^4 to 1×10^5 nuclei were added to 20 μl cytosolic extract and apoptosis was initiated by adding 10 μM horse heart cytochrome c (Sigma, Inc.; St. Louis Mo.) and 1 mM dATP, alone (positive control) or with cytochrome c, dATP and either 0.4 μM GST-XIAP or 0.4 μM GST-Bcl-2. Following incubation at 37° C. for 60 min., nuclei were stained with 1 μg/ml of acridine orange and ethidium bromide and the percentage nuclei with apoptotic features, including extremely condensed chromatin and the genesis of fragmentation of nuclei, was determined.

caspase-6 = molecular target: T1, caspase-6 (Homo sapiens, UniProt P55212); experiment: GST pull-down binding to caspase-6; details: glutathione-Sepharose beads, immunoblot
T1 construct: Purified active caspase concentrations ranged from 0.1 nM to 10 nM; His6; made in house; host or cells: E. coli BL21(DE3)pLysS
T1 sequence (P55212 24-179 limits assumed): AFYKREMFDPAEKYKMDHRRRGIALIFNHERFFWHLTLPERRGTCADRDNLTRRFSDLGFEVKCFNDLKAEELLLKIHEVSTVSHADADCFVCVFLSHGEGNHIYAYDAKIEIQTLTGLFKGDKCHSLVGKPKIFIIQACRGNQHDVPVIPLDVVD
T1 sequence (P55212 194-293 limits assumed): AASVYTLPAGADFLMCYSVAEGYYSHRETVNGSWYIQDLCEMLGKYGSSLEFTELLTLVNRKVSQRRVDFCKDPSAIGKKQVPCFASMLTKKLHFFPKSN

[2] = system: pro-caspase-3 processing induced by cytochrome c; experiment: Cytochrome c-induced processing of pro-caspase-3 in 293 cytosolic extracts; type: biochemical, human; details: immunoblot
Procedure: Samples were incubated at 30° C. for 30 minutes. Extracts were then separated by SDS-PAGE electrophoresis, transferred to nitrocellulose and incubated with antisera specific for the zymogen and large subunit of caspase-3.
Briefly, cells were washed with ice-cold buffer A (20 mM Hepes [pH 7.5], 10 mM KCl, 1.5 mM MgCl2, 1 mM EDTA, and 1 mM DTT) and suspended in 1 volume of buffer A. Cells were incubated on ice for 20 minutes and then disrupted by passage through a 26 gauge needle 15 times. Cell extracts were clarified by centrifugation at 16,000×g for 30 minutes and the resulting supernatants were stored at −80° C. For initiating caspase activation, either 10 μM horse heart cytochrome c (Sigma, Inc.) together with 1 mM dATP, or 100 nM of purified recombinant caspase-8, was added to extracts (10–15 mg total protein/ml).

caspase-1 = molecular target: T2, caspase-1 (Homo sapiens, UniProt P29466); experiment: Inhibition of purified recombinant caspase-1, substrate hydrolysis; type: biochemical; details: 50-fold molar excess
T2 construct: Purified active caspase concentrations ranged from 0.1 nM to 10 nM; made in house
T2 sequence (P29466 120-297 limits assumed): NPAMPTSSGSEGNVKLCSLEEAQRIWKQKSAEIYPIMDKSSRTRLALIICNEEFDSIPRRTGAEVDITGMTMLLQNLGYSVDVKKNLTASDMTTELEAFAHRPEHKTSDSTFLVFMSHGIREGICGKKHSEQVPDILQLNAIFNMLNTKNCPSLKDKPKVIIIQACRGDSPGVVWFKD
T2 sequence (P29466 317-404 limits assumed): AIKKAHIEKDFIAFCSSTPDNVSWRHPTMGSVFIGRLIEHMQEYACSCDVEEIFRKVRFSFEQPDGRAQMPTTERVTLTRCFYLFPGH
Procedure: Purified recombinant caspase-1, caspase-3, caspase-6, caspase-7 or caspase-8 were incubated with DEVD-pNA, either alone or with a 10-fold to 50-fold molar excess of GST-XIAP ([…]) and substrate hydrolysis was measured. Purified active caspase concentrations ranged from 0.1 nM to 10 nM. XIAP concentration ranged from 0.1 nM to 500 nM. Assays were performed in caspase buffer (50 mM Tris, pH 7.4, 100 mM NaCl, 10% sucrose, 5–10 mM DTT, 1 mM EDTA and 0.1% CHAPS).

binding of caspase-6 (in words) (caspase-6): not caspase-6
concentration that effectively abolished cytochrome c-induced processing of pro-caspase-3 [2]: 0.1 to 0.2 µM
interference with substrate cleavage by caspase-1 (caspase-1): did not interfere
Substance: XIAP: X chromosome linked inhibitor of apoptosis protein (Genbank U32974), used mostly as recombinant GST fusion or expressed from plasmid
apoptotic nuclei [1]: about 15%
